Data from US20220281848A1, “PYRAZOLE-SUBSTITUTED PYRROLIDINONES AS HERBICIDES” (FMC Corporation, priority 2019, published 2022).

Columns and labels:
Type in all cases: in vivo
corn (Zea mays, ZEAMX) [1] = experiment: Test A pre-emergence, corn; conditions: after 13 d
Method in brief: (§1)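 Seeds sown in pots of standard soil and sprayed one day later, pre-emergence, at 15.625, 62.5 or 250 g/ha in acetone/water (50:50) with 0.5% Tween 20. Grown in glasshouse at 24/16 °C, 14 h light, 65% humidity. Damage scored after 13 d (0 none, 100 total).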

[2] = system: giant foxtail (Setaria faberi, SETFA); experiment: Test A pre-emergence, giant foxtail; conditions: after 13 d
Method in brief: as §1

[3] = system: barnyardgrass (Echinochloa crus-galli, ECHCG); experiment: Test A pre-emergence, barnyardgrass; conditions: after 13 d
Method in brief: as §1

[4] = system: ivy-leaved morning glory (Ipomoea hederacea, IPOHE); experiment: Test A pre-emergence, ivy-leaved morning glory; conditions: after 13 d
Method in brief: as §1

[5] = system: redroot pigweed (Amaranthus retroflexus, AMARE); experiment: Test A pre-emergence, redroot pigweed; conditions: after 13 d
Method in brief: as §1

corn (Zea mays, ZEAMX) [6] = experiment: Test A post-emergence, corn; conditions: after 13 d
Method in brief: (§2)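 Plants were grown 8 d in a glasshouse (24/16° C day/night, 14 h light, 65% humidity), then sprayed post-emergence at 15.625, 62.5 or 250 g/ha in acetone/water (50:50) with 0.5% Tween 20. Damage was scored visually after 13 d (0 = none, 100 = total).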

[7] = system: giant foxtail (Setaria faberi, SETFA); experiment: Test A post-emergence, giant foxtail; conditions: after 13 d
Method in brief: as §2

[8] = system: redroot pigweed (Amaranthus retroflexus, AMARE); experiment: Test A post-emergence, redroot pigweed; conditions: after 13 d
Method in brief: as §2

[9] = system: velvetleaf (Abutilon theophrasti, ABUTH); experiment: Test A post-emergence, velvetleaf; conditions: after 13 d
Method in brief: as §2

maize = experiment: Test D post-emergence, maize seed treated with a herbicide safener
Method in brief: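 Herbicidal injury on safener-protected cereals: application timings were one day after sowing for pre-emergence and about 12 days of cultivation for post-emergence. Assessment came 20 DAA or 15 d later respectively, on a scale where 100 meant total damage.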

CCn1nc([C@H]2CN(C)C(=O)[C@@H]2C(=O)Nc2cccc(F)c2F)c2cc(F)ccc21 [Compound 8]
60: damage to plant (100=total damage; 0=no damage) ZEAMX (corn (Zea mays, ZEAMX) [6]; Post-Emergence at 62.5 g/ha)
90: damage to plant (100=total damage; 0=no damage) SETFA ([2]; Pre-Emergence at 62.5 g/ha) | damage to plant (100=total damage; 0=no damage) SETFA ([2]; Pre-Emergence at 250 g/ha) | damage to plant (100=total damage; 0=no damage) ECHCG ([3]; Pre-Emergence at 62.5 g/ha) | damage to plant (100=total damage; 0=no damage) ECHCG ([3]; Pre-Emergence at 250 g/ha)
70: damage to plant (100=total damage; 0=no damage) ZEAMX (corn (Zea mays, ZEAMX) [1]; Pre-Emergence at 250 g/ha) | damage to plant (100=total damage; 0=no damage) SETFA ([7]; Post-Emergence at 15.625 g/ha) | damage to plant (100=total damage; 0=no damage) SETFA ([7]; Post-Emergence at 62.5 g/ha)
40: damage to plant (100=total damage; 0=no damage) ZEAMX (corn (Zea mays, ZEAMX) [1]; Pre-Emergence at 62.5 g/ha)
20: damage to plant (100=total damage; 0=no damage) ZEAMX (corn (Zea mays, ZEAMX) [1]; Pre-Emergence at 15.625 g/ha) | damage to plant (100=total damage; 0=no damage) IPOHE ([4]; Pre-Emergence at 15.625 g/ha) | damage to plant (100=total damage; 0=no damage) IPOHE ([4]; Pre-Emergence at 62.5 g/ha) | damage to plant (100=total damage; 0=no damage) IPOHE ([4]; Pre-Emergence at 250 g/ha) | damage to plant (100=total damage; 0=no damage) ZEAMX (corn (Zea mays, ZEAMX) [6]; Post-Emergence at 15.625 g/ha)
80: damage to plant (100=total damage; 0=no damage) SETFA ([2]; Pre-Emergence at 15.625 g/ha) | damage to plant (100=total damage; 0=no damage) ECHCG ([3]; Pre-Emergence at 15.625 g/ha) | damage to plant (100=total damage; 0=no damage) ZEAMX (corn (Zea mays, ZEAMX) [6]; Post-Emergence at 250 g/ha) | damage to plant (100=total damage; 0=no damage) SETFA ([7]; Post-Emergence at 250 g/ha)
0: damage to plant (100=total damage; 0=no damage) AMARE ([5]; Pre-Emergence at 15.625 g/ha) | damage to plant (100=total damage; 0=no damage) AMARE ([5]; Pre-Emergence at 62.5 g/ha) | damage to plant (100=total damage; 0=no damage) AMARE ([5]; Pre-Emergence at 250 g/ha) | damage to plant (100=total damage; 0=no damage) AMARE ([8]; Post-Emergence at 15.625 g/ha) | damage to plant (100=total damage; 0=no damage) AMARE ([8]; Post-Emergence at 62.5 g/ha) | damage to plant (100=total damage; 0=no damage) AMARE ([8]; Post-Emergence at 250 g/ha) | damage to plant (100=total damage; 0=no damage) ABUTH ([9]; Post-Emergence at 15.625 g/ha) | damage to plant (100=total damage; 0=no damage) ABUTH ([9]; Post-Emergence at 62.5 g/ha) | damage to plant (100=total damage; 0=no damage) ABUTH ([9]; Post-Emergence at 250 g/ha) | damage to plant (100=total damage to plant; 0=no damage to plant), ZEAMX (maize; rate 130, evaluated after 15 d) | damage to plant (100=total damage to plant; 0=no damage to plant), ZEAMX (maize; rate 250, evaluated after 15 d) | damage to plant (100=total damage to plant; 0=no damage to plant), ZEAMX (maize; rate 500, evaluated after 15 d)

CCn1nc([C@@H]2CN(C)C(=O)[C@H]2C(=O)Nc2cccc(F)c2F)c2cccc(F)c21 [Compound 14]
60: damage to plant (100=total damage; 0=no damage) SETFA ([2]; Pre-Emergence at 15.625 g/ha) | damage to plant (100=total damage; 0=no damage) ECHCG ([3]; Pre-Emergence at 15.625 g/ha)
10: damage to plant (100=total damage; 0=no damage) ZEAMX (corn (Zea mays, ZEAMX) [1]; Pre-Emergence at 62.5 g/ha)
40: damage to plant (100=total damage; 0=no damage) IPOHE ([4]; Pre-Emergence at 62.5 g/ha)
70: damage to plant (100=total damage; 0=no damage) ZEAMX (corn (Zea mays, ZEAMX) [1]; Pre-Emergence at 250 g/ha) | damage to plant (100=total damage; 0=no damage) IPOHE ([4]; Pre-Emergence at 250 g/ha) | damage to plant (100=total damage; 0=no damage) ZEAMX (corn (Zea mays, ZEAMX) [6]; Post-Emergence at 15.625 g/ha) | damage to plant (100=total damage; 0=no damage) ZEAMX (corn (Zea mays, ZEAMX) [6]; Post-Emergence at 62.5 g/ha)
30: damage to plant (100=total damage; 0=no damage) IPOHE ([4]; Pre-Emergence at 15.625 g/ha)
80: damage to plant (100=total damage; 0=no damage) ECHCG ([3]; Pre-Emergence at 62.5 g/ha) | damage to plant (100=total damage; 0=no damage) ZEAMX (corn (Zea mays, ZEAMX) [6]; Post-Emergence at 250 g/ha) | damage to plant (100=total damage; 0=no damage) SETFA ([7]; Post-Emergence at 15.625 g/ha) | damage to plant (100=total damage; 0=no damage) SETFA ([7]; Post-Emergence at 62.5 g/ha)
90: damage to plant (100=total damage; 0=no damage) SETFA ([2]; Pre-Emergence at 62.5 g/ha) | damage to plant (100=total damage; 0=no damage) SETFA ([2]; Pre-Emergence at 250 g/ha) | damage to plant (100=total damage; 0=no damage) ECHCG ([3]; Pre-Emergence at 250 g/ha) | damage to plant (100=total damage; 0=no damage) SETFA ([7]; Post-Emergence at 250 g/ha)
0: damage to plant (100=total damage; 0=no damage) AMARE ([5]; Pre-Emergence at 15.625 g/ha) | damage to plant (100=total damage; 0=no damage) AMARE ([5]; Pre-Emergence at 62.5 g/ha) | damage to plant (100=total damage; 0=no damage) AMARE ([5]; Pre-Emergence at 250 g/ha) | damage to plant (100=total damage; 0=no damage) AMARE ([8]; Post-Emergence at 15.625 g/ha) | damage to plant (100=total damage; 0=no damage) AMARE ([8]; Post-Emergence at 62.5 g/ha) | damage to plant (100=total damage; 0=no damage) AMARE ([8]; Post-Emergence at 250 g/ha) | damage to plant (100=total damage; 0=no damage) ABUTH ([9]; Post-Emergence at 15.625 g/ha) | damage to plant (100=total damage; 0=no damage) ABUTH ([9]; Post-Emergence at 62.5 g/ha) | damage to plant (100=total damage; 0=no damage) ABUTH ([9]; Post-Emergence at 250 g/ha) | damage to plant (100=total damage to plant; 0=no damage to plant), ZEAMX (maize; rate 130, evaluated after 15 d) | damage to plant (100=total damage to plant; 0=no damage to plant), ZEAMX (maize; rate 250, evaluated after 15 d)
20: damage to plant (100=total damage; 0=no damage) ZEAMX (corn (Zea mays, ZEAMX) [1]; Pre-Emergence at 15.625 g/ha) | damage to plant (100=total damage to plant; 0=no damage to plant), ZEAMX (maize; rate 500, evaluated after 15 d)
